Earlier results in patent US20240189272A1, “FORMULATIONS AND COMPOSITIONS OF DOCETAXEL” (Zhuhai Beihai Biotech Co., Ltd., priority 2017, published 2024).
“Also recorded” adds a separate entry of the source.

Columns and labels:
[1] = attributed in part to polysorbate 80

in vitro binding to plasma proteins (plasma proteins; in three cancer patients): approximately 97%
protein bound (plasma proteins; in vitro studies, mainly to α1-acid glycoprotein, albumin, and lipoproteins): about 94%
SMILES: CC(=O)O[C@@]12CO[C@@H]1C[C@H](O)[C@@]1(C)C(=O)[C@H](O)C3=C(C)[C@@H](OC(=O)[C@H](O)[C@@H](NC(=O)OC(C)(C)C)c4ccccc4)C[C@@](O)([C@@H](OC(=O)c4ccccc4)[C@H]21)C3(C)C [docetaxel]
potency in inhibiting microtubule depolymerization relative to paclitaxel (microtubules): about twice as potent as paclitaxel
side-effects associated with administration [1]: unpredictable (acute) hypersensitivity reactions and cumulative fluid retention
water solubility: practically insoluble in water; also recorded: very poor water solubility
